The source of these data is patent US20250281561A1, “APPLICATION OF LYCIUM BARBARUM LEAF EXTRACT IN PREPARING DRUG FOR TREATING DIABETIC RETINOPATHY” (NANJING UNIVERSITY OF CHINESE MEDICINE, priority 2025, published 2025).

SMILES strings stand for the structures.

Assay [1] has as its system ARPE-19 cells with high glucose-induced damage. The assay is described as follows: CCK8 survival rate of ARPE-19 cells with high glucose-induced damage. Conditions: 300 mM glucose, 48 hours; high dose 10 μg/mL, low dose 1 μg/mL; compared with model group. In kind it is cell-based. On the procedure:
Preparation method of active ingredient solution of Lycium barbarum leaf: 1 mg of freeze-dried powder of different active ingredients of Lycium barbarum leaf (Lycium barbarum leaf water extract, Lycium barbarum leaf ethanol extract, refined Lycium barbarum leaf extract, Lycium barbarum polysaccharide, and betaine) prepared in Embodiment 1 was weighed respectively, and dissolved in 1 mL of DMEM/F12 culture medium to prepare 1 mg/mL solution, and the solution was diluted to a required concentration with DMEM/F12 culture medium during administration, and filtered with a […] filter for sterilization. […]
The cells were inoculated into a 96-well plate during culture, and divided into a control group (Con group), a model group (Mod group), a high-dose Lycium barbarum leaf water extract group (ST-H group), a low-dose Lycium barbarum leaf water extract group (ST-L group), a high-dose Lycium barbarum leaf ethanol extract group (CT-H group), a low-dose Lycium barbarum leaf ethanol extract group (CT-L group), […], a low-dose Lycium barbarum polysaccharide group (DT-L group), a high-dose betaine group (SWJ-H group), and a low-dose betaine group (SWJ-L group), wherein the high dose was 10 μg/mL and the low dose was 1 μg/mL. […] An absorbance was measured at 450 nm, and a cell survival rate was calculated.

Assay [2] shares this test system. The assay is described as follows: Kit detection of oxidative stress level (GSH, SOD, MDA) in ARPE-19 cells with high glucose-induced damage. The format is cell-based. Particulars: summary statement. The protocol: Preparation method of active ingredient solution of Lycium barbarum leaf: 1 mg of freeze-dried powder of different active ingredients of Lycium barbarum leaf (Lycium barbarum leaf water extract, Lycium barbarum leaf ethanol extract, refined Lycium barbarum leaf extract, Lycium barbarum polysaccharide, and betaine) prepared in Embodiment 1 was weighed respectively, and dissolved in 1 mL of DMEM/F12 culture medium to prepare 1 mg/mL solution, and the solution was diluted to a required concentration with DMEM/F12 culture medium during administration, and filtered with a […] filter for sterilization.
(§1) The ARPE-19 cells were cultured in DMEM/F12 culture medium containing 10% FBS and 1% penicillin/streptomycin at 37° C. under 5% CO2. A model group was treated with 300 mM glucose, and the culture medium was added with a corresponding drug to culture the cells for 48 hours to complete the modeling.
The cells were inoculated into a 6-well plate during cell culture, and divided into a Con group, a Mod group, a ST-H group, a ST-L group, a CT-H group, a CT-L group, a FT-H group, a FT-L group, a DT-H group, a DT-L group, a SWJ-H group, and a SWJ-L group, wherein the high dose was 10 μg/mL and the low dose was 1 μg/mL. […] A GSH level, and SOD and MDA activities in the cells were detected according to a kit instruction.

For assay [3], the system named is p38, ERK and JNK genes in a MAPK pathway. The assay is described as follows: qPCR gene expression level (p38, ERK, JNK) in ARPE-19 cells with high glucose-induced damage. Particulars: 10 μg/mL, compared with model group. The format is cell-based. The protocol:
as §1
The cells were inoculated into a 6-well plate during cell culture, and divided into a Con group, a Mod group, a ST group, a CT group, a FT group, a DT group, and a SWJ group, wherein the administration dosage was 10 μg/mL. The cells were collected into Ep tubes and centrifuged at 1000 rpm for 5 minutes, and a supernatant was discarded. Each tube was added with 1 ml of Trizol reagent and blown violently for 15 seconds to mix fully and evenly, and the mixture was allowed to stand at room temperature for 2-3 minutes, and rotated at 4° C. for 1-2 hours. […] A concentration was determined by an ultra-micro ultraviolet spectrophotometer, and then the mixture was stored in a refrigerator at −80° C. for later use. […]
The reaction system was mixed fully and evenly, added to a 96-well PCR plate, centrifuged, and determined by a PCR machine. […] A CT value of a sample was determined, and then relative expressions of p38, JNK and ERK in the sample were calculated by a 2-ΔΔCT method.
On the technique in general: Real-time PCR tracks product formation cycle by cycle.

In assay [4] the test system is ARPE-19 cells with high glucose-induced damage. The assay is described as follows: ROS content (H2FCDA fluorescence) in ARPE-19 cells with high glucose-induced damage. The format is cell-based. Particulars: high dose 10 g/mL, low dose 1 μg/mL, compared with model group. On the procedure: as §1
The cells were inoculated into a 96-well plate during culture, and divided into a Con group, a Mod group, a ST-H group, a ST-L group, a CT-H group, a CT-L group, a FT-H group, a FT-L group, a DT-H group, a DT-L group, a SWJ-H group, and a SWJ-L group, wherein the high dose was […] and the low dose was 1 μg/mL. After the culture was completed, the culture medium was discarded, and a culture medium containing 1/1000 H2FCDA was added to incubate the cells at 37° C. for 30 minutes. A photo was taken by a fluorescence microscope at an excitation wavelength of 488 nm, and a fluorescence intensity was analyzed by ImageJ.

Assay [5] has as its system DR zebrafish. The assay is described as follows: Kit detection of glucose content and oxidative stress level (GSH, SOD, MDA) in DR zebrafish. In kind it is in vivo. On the procedure: (§2) 3dpf zebrafish embryos were cultured in a 6-well plate, with 30 zebrafish embryos in each well. A model group and an administration group were cultured in 100 mg/mL circulating water, and divided into a Con group, a Mod group, a metformin (MET) group, a ST-H group, a ST-L group, a CT-H group, a CT-L group, a FT-H group, a FT-L group, a DT-H group, a DT-L group, a SWJ-H group, and a SWJ-L group. An administration dosage for the MET group was 200 μg/ml, and a crude drug dosage was converted for other administration groups, wherein a high dose was 40 μg/mL, and a low dose was 20 μg/mL. The zebrafish embryos were cultured for three days, and the water was replaced at a fixed time every day.
Wild A/B-type zebrafish embryos were cultured according to the above method, and then the zebrafish embryos were collected into Ep tubes and then homogenized, and centrifuged at 4000 rpm for 10 minutes. A supernatant was taken, and GLU and GSH levels and SOD and MDA activities in cells were detected according to a kit instruction.

Assay [6] has as its system p38, ERK and JNK genes in a MAPK pathway. The assay is described as follows: qPCR gene expression level (p38, ERK, JNK) in DR zebrafish. In kind it is in vivo. Conditions: crude drug dosage high 40 μg/mL, low 20 μg/mL, three days, compared with model group. On the procedure: as §2
The cultured zebrafish embryos were collected into Ep tubes, and each tube was added with 1 mL of TRIZOL and then homogenized, and centrifuged at 4° C. and 12000× g for 10 minutes. A supernatant was taken, and other operations were as described in 2.3.

The subject of assay [7] is DR zebrafish. The assay is described as follows: Retinal vascular diameter in DR zebrafish (fli1: EGFP, fluorescence microscope, ImageJ). Particulars: crude drug dosage high 40 μg/mL, low 20 μg/mL, three days, compared with model group. In kind it is in vivo. On the procedure: as §2
3dpf fli1: EGFP zebrafish embryos were cultured by the method as described in 2.4, and 0.003% phenylthiourea (PTU) was added into circulating water to inhibit melanogenesis of the zebrafish embryos. After the culture was completed, the zebrafish embryos were collected, and fixed on a glass slide. The retinal vessels in the zebrafish were photographed by a fluorescence microscope, and a retinal vascular diameter was measured by ImageJ.

On to `C[N+](C)(C)CC(=O)O` [betaine], for which the “survival rate of ARPE-19 cells” value in assay [1] was “improve a survival rate”. Moreover, the oxidative stress entry in assay [2] was “improve oxidative stress”; in assay [5] (DR zebrafish model, summary statement), “improve oxidative stress”. Besides, the “relative mRNA expressions of p38, ERK and JNK” value in assay [3] and in assay [6] was “down-regulate expression levels” each time. In addition, in assay [4], the “ROS content (ROS fluorescence intensity)” value is on record as “significantly reduce the generation of ROS”. For the same compound, the glucose content entry in assay [5] (DR zebrafish, crude drug dosage high 40 μg/mL, low 20 μg/mL, three days, compared with model group) is “reduce a glucose content in vivo”. The retinal vascular diameter result in assay [7] was “significantly reduce a retinal vascular diameter”.
